What was measured:
in vitro = in vitro ADME; conditions: 37°C, read-out: Plasma stability, half-life
Method: (§1) Blood plasma and S9 stability was studied as described previously ([8]). In brief, the compounds were incubated at 2 μM in hamster, rat, dog, monkey, or human plasma samples for up to 4 h at 37°C. For S9 stability, the compounds were incubated at 2 μM in hamster, rat, dog, monkey, or human intestinal and hepatic S9 fractions for up to 90 min at 37°C in the presence of NADPH and uridine 5′-diphosphoglucuronic acid trisodium salt (UDPGA) (Sigma-Adrich). The samples were analyzed by liquid chromatography coupled to triple-quadrupole mass spectrometry (LC-MS/MS).
(§2) The data (analyte-to-internal standard peak area ratio) were plotted on a semilog scale and fitted using an exponential fit. The half-life (t1/2) was determined assuming first-order kinetics.

[1] = Metabolic stability in intestinal S9 fraction, monkey; format: in vitro ADME; conditions: monkey (cynomolgus)
Method: as §1, §2

[2] = Metabolic stability in hepatic S9 fraction, dog; format: in vitro ADME; conditions: 2 μM
Method: as §1, §2

HCV GT1b replicon = test: HCV GT1b replicon, stably transfected Huh-Lunet cells; format: cell-based, hepatitis C virus; conditions: for EC50: Hepatitis C virus, 72 h, stably transfected Huh-Lunet cells, 3 days
Method: (§3) Primary hepatocytes from humans, hamsters, dogs, and monkeys were purchased from BioreclamationIVT in 12-well plates seeded at confluence (0.88 × 10^6 cells/well). Huh-Lunet cells were obtained from ReBlikon GmbH (Mainz, Germany) ([19]). Huh-1C was derived from a GT1a replicon clone in which HCV replication was cured. All Huh-Lunet- and Huh-1C-based replicon cell lines were cultured in Dulbecco's modified Eagles' medium (DMEM) with GlutaMAX (Invitrogen, Carlsbad, CA) supplemented with 10% fetal bovine serum (FBS; HyClone, Logan, UT) and 100 U/ml penicillin (Invitrogen). Replicon cell lines containing genotype 1a (H77) and 2a (JFH1) were created as previously reported ([20][–][22]). Caco-2 cells were maintained in DMEM with sodium pyruvate, GlutaMAX supplemented with 1% penicillin-streptomycin, 1% nonessential amino acids, and 10% FBS in an incubator set at 37°C, 90% humidity, and 5% CO2.
(§4) GT1a, GT1b, and GT2a are authentic subgenomic replicons of the indicated strain. Creation of these HCV replicons was reported previously ([7]).
(§5) The EC50s, defined as the concentration at which there was a measured 50% decrease in HCV replicon level, were determined in replicon assay as previously described ([24]). Briefly, replicon cells were seeded into 96-well plates. Compounds were serially diluted in DMSO at 200× final concentrations and then added to the assay plate. Luciferase expression was quantified after 3 days of incubation using a commercial luciferase assay (Promega, Madison, WI). Data were analyzed using GraphPad Prism 6.0 (La Jolla, CA).
(§6) X represents log of compound concentration and Y represents replicon replication as the percentage of DMSO control. EC50s were calculated as an average from at least three independent experiments.

HCV GT1a replicon = test: HCV GT1a replicon, transiently transfected Huh-1C cells; format: cell-based, hepatitis C virus; conditions: for EC50: Hepatitis C virus, GT1A, 72 h
Method: as §4
(§7) RNA was transcribed in vitro using a MEGAscript […] kit (Ambion, Austin, TX) and transfected into Huh-Lunet and −1C cells using published methods ([21], [22]).
as §5, §6

HCV GT2a replicon [3] = test: HCV GT2a replicon, transiently transfected Huh-1C cells; format: cell-based, hepatitis C virus; conditions: for EC50: Hepatitis C virus, GT2A, 72 h
Method: as §4, §7, §5, §6

[4] = Caco-2 bidirectional permeability; format: in vitro ADME; conditions: human; for Papp A→B / Papp B→A / efflux ratio: at thermodynamic solubility limit in fed simulated intestinal fluid; for efflux ratio: read-out: Efflux ratio B→A/A→B
Method: Caco-2 cells between passage 43 and 71 were grown to confluence for ≥21 days on 12- or 24-well polyethylene terephthalate plates (BD Biosciences). The bidirectional permeability of compounds was tested as described previously ([8]). In brief, the donor well contained Hanks' balanced salt solution (HBSS), 10 mM HEPES (pH 6.5), and 15 mM glucose. The receiver well contained HBSS (pH 7.4) and 1% bovine serum albumin (BSA). The cells were dosed on the apical (A) or basolateral (B) side to determine forward (A to B) and reverse (B to A) permeability. Media from the donor and receiver wells were analyzed by LC-MS/MS.

[5] = Metabolic stability in hepatic S9 fraction, rat; format: in vitro ADME; conditions: 2 μM
Method: as §1, §2

HCV GT2a replicon [6] = test: HCV GT2a replicon, stably transfected Huh-Lunet cells; format: cell-based, hepatitis C virus; conditions: for EC50: Hepatitis C virus, 72 h, stably transfected Huh-Lunet cells, 3 days
Method: as §3, §4, §5, §6

[7] = Metabolic stability in intestinal S9 fraction, rat; format: in vitro ADME
Method: as §1, §2

CES1 = target: T1, CES1 (Homo sapiens, UniProt P23141); test: Ester cleavage by CES1; format: biochemical
T1 construct: purchased R&D Systems (Minneapolis, MN)
T1 sequence (P23141 18-567): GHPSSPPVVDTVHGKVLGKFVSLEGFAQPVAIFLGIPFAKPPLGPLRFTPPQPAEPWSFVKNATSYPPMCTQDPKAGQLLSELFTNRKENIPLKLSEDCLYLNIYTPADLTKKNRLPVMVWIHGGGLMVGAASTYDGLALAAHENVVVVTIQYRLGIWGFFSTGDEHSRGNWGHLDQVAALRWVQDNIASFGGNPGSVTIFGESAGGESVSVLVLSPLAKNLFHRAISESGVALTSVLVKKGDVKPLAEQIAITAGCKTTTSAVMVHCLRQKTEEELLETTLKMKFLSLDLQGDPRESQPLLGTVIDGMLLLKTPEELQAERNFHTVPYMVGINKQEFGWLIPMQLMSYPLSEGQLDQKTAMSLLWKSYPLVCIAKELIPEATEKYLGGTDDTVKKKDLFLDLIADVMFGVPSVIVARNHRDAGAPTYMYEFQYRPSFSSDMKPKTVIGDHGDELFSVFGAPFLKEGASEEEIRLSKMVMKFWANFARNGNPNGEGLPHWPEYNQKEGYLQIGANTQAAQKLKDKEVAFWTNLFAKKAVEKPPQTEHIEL
Method: Biochemical assays studying prodrug cleavage have been described previously ([8]). In brief, the cleavages of GS2 by CATA, CES1, CES2, and HINT1 were assessed in vitro. The reaction substrates and products were monitored over time by high-performance liquid chromatography (HPLC).

[8] = Metabolic stability in hepatic S9 fraction, monkey; format: in vitro ADME; conditions: monkey (cynomolgus); 2 μM
Method: as §1, §2

[9] = CES1, GS-6620-containing diastereomeric mixture was used

Row | SMILES | half-life at 2 μM (in vitro; dog plasma) [h] | half-life at 2 μM (in vitro; hamster plasma) [h] | half-life at 2 μM (in vitro; human plasma) [h] | half-life at 2 μM (in vitro; monkey (cynomolgus) plasma) [h] | half-life at 2 μM (in vitro; rat plasma) [h] | half-life at 2 μM [1] [h] | Metabolic stability in hepatic S9 fraction, predicted hepatic extraction [2] [%] | EC50 (HCV GT1b replicon) [nM] | EC50 (HCV GT1a replicon) [nM] | EC50 (HCV GT2a replicon [3]) [nM] | Papp A→B [4] [×10⁻⁶ cm/s] | Papp B→A [4] [×10⁻⁶ cm/s] | efflux ratio [4] | Metabolic stability in hepatic S9 fraction, predicted hepatic extraction [5] [%] | EC50 (HCV GT2a replicon [6]; GT2a) [nM] | half-life at 2 μM [7] [h] | Amidate ester cleavage, specific activity (CES1; [9]) [pmol/min/µg] | Metabolic stability in hepatic S9 fraction, predicted hepatic extraction [8] [%] | also measured
1 | CC(C)OC(=O)C(C)(C)N[P@](=O)(OC[C@H]1O[C@@](C#N)(c2ccc3c(N)ncnn23)[C@](C)(O)[C@@H]1O)Oc1ccccc1 [GS2] | > 10 | > 10 | > 10 | > 10 | 0.0833 | 3.83 | 42 | 2200 | 140 ± 60 | 61 ± 8 | 2.6 | 6.7 | 2.5 | 86 | 25000 | 2.83 | 91.0 | 91 | Fold (GS2/GS-6620) (HCV GT1b replicon; EC50 ratio, Huh-Lunet): 7.2; Fold (GS2/GS-6620) (HCV GT1a replicon; EC50 ratio, GT1a, Huh-1C): 3.5; Fold (GS2/GS-6620) (HCV GT2a replicon [3]; EC50 ratio, GT2a, Huh-1C): 2.3; Papp A→B at 10 μM ([4]; tested at 10 μM): 0.4 ×10⁻⁶ cm/s; Papp B→A at 10 μM ([4]; tested at 10 μM): 9.3 ×10⁻⁶ cm/s; Fold (GS2/GS-6620) (HCV GT2a replicon [6]; EC50 ratio, GT2a, Huh-Lunet): 50; CES1 hydrolysis more efficient than GS-6620 (CES1; isopropyl ester cleavage): 48 fold
2 | CC(C)OC(=O)[C@H](C)N[P@](=O)(OC[C@H]1O[C@@](C#N)(c2ccc3c(N)ncnn23)[C@](C)(O)[C@@H]1OC(=O)C(C)C)Oc1ccccc1 [GS-6620, reference compound] | 7.17 | 2 | 6.17 | 1.33 | < 0.0333 | 0.0933 | 73 | 300 ± 140 | 41 ± 19 | 27 ± 10 | 1.8 | 11 | 5.8 | 97 | 500 ± 160 | 0.147 | 1.9 | 95 | difference in activity across the 2a replicons (HCV GT2a replicon [6]; Huh-Lunet vs Huh-1C 2a replicons): ≤ 19 fold; 3′-Ester cleavage, specific activity (CES1; [9]): 1.6 pmol/min/µg

Reference: article PMC6105845, “Nucleotide Prodrug Containing a Nonproteinogenic Amino Acid To Improve Oral Delivery of a Hepatitis C Virus Treatment” (Antimicrobial Agents and Chemotherapy, 2018)
